Experimental data published in patent US20100305213A1, “TREATMENT OF HEART DISEASE USING BETA-BLOCKERS” (Bayer Animal Health GmbH, priority 2007, published 2010).
Where a name gives a salt, the structure may show the parent alone.

Legend:
[1] = tested on: inward rectifier K+ current (IK1); test: Inward rectifier K+ current recordings in isolated ventricular myocytes of treated dogs; format: in vivo, dog
Text: After altogether 5 weeks of treatment the dogs were anaesthetized according to standard veterinary procedures and ex vivo ventricular myocytes were directly isolated from the mid-lateral left ventricular free wall using an isolation procedure described by Kubalova et al., which results in isolation of myocytes from the midmyocardial region. Afterwards the animals were humanely euthanized. Recordings of single cell action potentials and K+ currents were made. See Kubalova et al., Abnormal intrastore calcium signaling in chronic heart failure, Proc Nat Acad Sci 2005; 102: 14104-14109. There are two K+ currents which are expected to modulate the resting membrane potential and the action potential duration, and are known to be altered during heart failure, the inward and the outward K+ currents. The inward rectifier K+ current (IK1) is the primary determinant of the resting membrane potential (inward current) and modulates the final phase of repolarization (outward current). Reductions in inward current result in depolarization of the resting potential, while reductions in outward current can contribute to action potential duration prolongation. IK1 was recorded in each of the four groups, data was recorded and analyzed. The peak outward K+ current was recorded in each of the four groups (FIG. 5 bottom), data was recorded and analyzed.

[2] = tested on: dogs with pacing-induced heart failure; format: in vivo
Experimental: A study was conducted with two groups of conscious dogs with pacing-induced heart failure to determine the tolerance and potential effects of different doses of bisoprolol fumarate. […] ECG (PQ, QRS, RR, QT, QTcF, and QTcV intervals), echocardiography (left ventricular shortening fraction (LVSF) and systemic arterial blood pressure (SBP, DBP, MAP and pulse pressure) were monitored in the two groups. Heart failure was produced by rapid ventricular pacing to reduce left ventricular shortening fraction (LVSF) greater than 15% from baseline.
In the first group, the conservative up-titration study, the dogs were treated with weekly increasing oral doses of 0.005, 0.01, 0.03, 0.05 and 0.1 mg/kg bisoprolol fumarate. In the second group, the aggressive up-titration study, the dogs were treated with weekly increasing doses of 0.01, 0.05, 0.1, 0.5 and 1 mg/kg bisoprolol fumarate on top of a dose of 0.5 mg/kg of enalapril, 4 mg/kg of furosemide, and 0.003 mg/kg of digoxin. These two groups were compared to a placebo group that was treated with the same doses of the standard heart failure therapy (enalapril, furosemide and digoxin) alone.

[3] = tested on: transient outward K+ current (Ito); test: Transient outward K+ current recordings in isolated ventricular myocytes of treated dogs; format: in vivo, dog
Text: After altogether 5 weeks of treatment the dogs were anaesthetized according to standard veterinary procedures and ex vivo ventricular myocytes were directly isolated from the mid-lateral left ventricular free wall using an isolation procedure described by Kubalova et al., which results in isolation of myocytes from the midmyocardial region. Afterwards the animals were humanely euthanized. Recordings of single cell action potentials and K+ currents were made. See Kubalova et al., Abnormal intrastore calcium signaling in chronic heart failure, Proc Nat Acad Sci 2005; 102: 14104-14109. There are two K+ currents which are expected to modulate the resting membrane potential and the action potential duration, and are known to be altered during heart failure, the inward and the outward K+ currents. The transient outward K+ current, (Ito) was recorded in all four groups and data was recorded and analyzed.

[4] = tested on: isolated ventricular myocytes; test: Action potentials in ventricular myocytes isolated ex vivo after 5 weeks of treatment (perforated whole cell patch clamp); parameters: species or system dog; settings: for APD50 compared to the placebo-treated heart failure group / APD90 compared to normal controls / heart failure induced prolongation of the APD90: 0.5 and 1 Hz
Text: After altogether 5 weeks of treatment the dogs were anaesthetized according to standard veterinary procedures and ex vivo ventricular myocytes were directly isolated from the mid-lateral left ventricular free wall using an isolation procedure described by Kubalova et al., which results in isolation of myocytes from the midmyocardial region. Afterwards the animals were humanely euthanized. Recordings of single cell action potentials and K+ currents were made. See Kubalova et al., Abnormal intrastore calcium signaling in chronic heart failure, Proc Nat Acad Sci 2005; 102: 14104-14109. For measurement of the action potentials myocytes were placed in a laminin coated cell chamber and superfused with a bath solution. Only quiescent myocytes with sharp margins and clear striations were used for the electrophysiological study. Borosilicate glass micropipettes were filled with a pipette solution that was pH adjusted to 7.2. Perforated whole cell patch clamp was used to minimize alterations in the intracellular milieu. Action Potentials (APs) were recorded with the perforated whole cell patch techniques. Action potentials were recorded in isolated ventricular myocytes, which were characterized in the standard manner as the durations to 50% and 90% of repolarization. APs were measured as the average of the last 10 (steady-state) APs, obtained during a train of twenty five APs at each stimulation rate. An average of 2-3 myocytes was measured from each heart failure dog. Action Potentials were recorded in four groups. The following numbers of recordings were obtained and used in the analyzed data (number (n) indicates the number of myocytes): Control (CTRL, untreated, healthy dogs) (n=10) HF-placebo (placebo-treated dogs in heart failure (HF-PL)) (n=17) HF-C-Up bisoprolol, according to conservative up-titration bisoprolol treated dogs in heart failure (n=13) HF-A-Up bisoprolol, according to aggressive up-titration bisoprolol treated dogs in heart failure (n=15) Resting membrane potential was measured at 0.5 Hz and 1 Hz to bracket the physiologic range of resting heart rates (FIG. 1).

[5] = aggressive up-titration (HF-A-Up)
[6] = conservative up-titration (HF-C-Up)

Compound: CC(C)NCC(O)COc1ccc(COCCOC(C)C)cc1 (stereo not drawn) [bisoprolol fumarate]
- inward IK1 current conductance, difference between the groups ([1]; all four groups): no difference
- peak outward IK1 current ([1]; conservative up-titration (HF-C-Up) relative to placebo (HF PL) and HF-A-Up): increased
- tolerance ([2]; dog, in vivo, po): well tolerated
- cardioselective β-blockade effect (prolongation of PQ interval and reduction of heart rate) ([2]; doses used in both up-titration groups, dogs with heart failure): near to maximum cardioselective β-blockade effect
- effects of heart failure on Ito ([3]; aggressive up-titration protocol (HF-A-Up Bis)): did not alter
- heart failure induced reductions in Ito ([3]; conservative up-titration protocol (HF-C-Up Bis), at the two highest test potentials (+40 and +50 mV)): significantly attenuated
- APD50 compared to normal control myocytes [4, 5]: did not differ
- APD50 compared to the placebo-treated heart failure group [4, 5]: statistically significant reduction
- APD90 compared to normal controls [4, 5]: did not differ
- heart failure induced prolongation of the APD90 [4, 5]: significantly attenuated
- APD50 compared to normal control myocytes [4, 6]: did not differ
- APD50 compared to the placebo-treated heart failure group [4, 6]: statistically significant reduction
- APD90 compared to normal controls [4, 6]: did not differ
- heart failure induced prolongation of the APD90 [4, 6]: significantly attenuated
- HF-induced changes in the action potential durations (particularly APD90 prolongation) ([4]; summary, both conservative and aggressive up-titration dosing regimens, physiologically relevant heart rates): significantly attenuated and even reversed to the physiological normal
